Reference: ChEMBL document CHEMBL4765228, “Indole-like Trk receptor antagonists” (Eur J Med Chem, 2016)

Columns and labels:
[1] = target: T1, Serine/threonine-protein kinase 3 (Homo sapiens) (UniProt Q13188); assay: Inhibition of human MST2 assessed as residual activity at 1 uM relative to control
T1 sequence (whole entry): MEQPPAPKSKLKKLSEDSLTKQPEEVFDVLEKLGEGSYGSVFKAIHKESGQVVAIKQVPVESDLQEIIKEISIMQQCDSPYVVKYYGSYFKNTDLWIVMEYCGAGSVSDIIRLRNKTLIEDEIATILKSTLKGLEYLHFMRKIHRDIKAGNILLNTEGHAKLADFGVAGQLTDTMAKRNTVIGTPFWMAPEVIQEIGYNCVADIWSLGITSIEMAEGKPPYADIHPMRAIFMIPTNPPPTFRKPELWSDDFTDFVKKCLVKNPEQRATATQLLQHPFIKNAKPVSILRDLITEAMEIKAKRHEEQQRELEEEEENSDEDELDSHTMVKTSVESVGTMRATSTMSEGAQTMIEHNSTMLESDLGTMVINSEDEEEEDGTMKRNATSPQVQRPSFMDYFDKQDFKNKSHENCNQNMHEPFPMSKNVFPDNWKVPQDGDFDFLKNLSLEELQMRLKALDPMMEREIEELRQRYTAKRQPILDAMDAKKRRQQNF

[2] = target: Aurora kinase B (Homo sapiens) (UniProt Q96GD4); assay: Inhibition of human Aurora-B assessed as residual activity at 0.1 uM relative to control
[3] = target: Tyrosine-protein kinase BTK (Homo sapiens) (UniProt Q06187); assay: Inhibition of human BTK assessed as residual activity at 0.1 uM relative to control
[4] = target: Calcium/calmodulin-dependent protein kinase kinase 2 (Homo sapiens) (UniProt Q96RR4); assay: Inhibition of human CAMKK2 assessed as residual activity at 0.1 uM relative to control
[5] = target: Serine/threonine-protein kinase Chk2 (Homo sapiens) (UniProt O96017); assay: Inhibition of human CHK2 assessed as residual activity at 0.1 uM relative to control
[6] = target: Serine/threonine-protein kinase Chk2 (Homo sapiens) (UniProt O96017); assay: Inhibition of human CHK2 assessed as residual activity at 1 uM relative to control
[7] = target: Dual specificity tyrosine-phosphorylation-regulated kinase 1A (Homo sapiens) (UniProt Q13627); assay: Inhibition of human DYRK1A assessed as residual activity at 0.1 uM relative to control
[8] = target: T2, Eukaryotic elongation factor 2 kinase (Homo sapiens) (UniProt O00418); assay: Inhibition of human EEF2K assessed as residual activity at 0.1 uM relative to control
T2 sequence (whole entry): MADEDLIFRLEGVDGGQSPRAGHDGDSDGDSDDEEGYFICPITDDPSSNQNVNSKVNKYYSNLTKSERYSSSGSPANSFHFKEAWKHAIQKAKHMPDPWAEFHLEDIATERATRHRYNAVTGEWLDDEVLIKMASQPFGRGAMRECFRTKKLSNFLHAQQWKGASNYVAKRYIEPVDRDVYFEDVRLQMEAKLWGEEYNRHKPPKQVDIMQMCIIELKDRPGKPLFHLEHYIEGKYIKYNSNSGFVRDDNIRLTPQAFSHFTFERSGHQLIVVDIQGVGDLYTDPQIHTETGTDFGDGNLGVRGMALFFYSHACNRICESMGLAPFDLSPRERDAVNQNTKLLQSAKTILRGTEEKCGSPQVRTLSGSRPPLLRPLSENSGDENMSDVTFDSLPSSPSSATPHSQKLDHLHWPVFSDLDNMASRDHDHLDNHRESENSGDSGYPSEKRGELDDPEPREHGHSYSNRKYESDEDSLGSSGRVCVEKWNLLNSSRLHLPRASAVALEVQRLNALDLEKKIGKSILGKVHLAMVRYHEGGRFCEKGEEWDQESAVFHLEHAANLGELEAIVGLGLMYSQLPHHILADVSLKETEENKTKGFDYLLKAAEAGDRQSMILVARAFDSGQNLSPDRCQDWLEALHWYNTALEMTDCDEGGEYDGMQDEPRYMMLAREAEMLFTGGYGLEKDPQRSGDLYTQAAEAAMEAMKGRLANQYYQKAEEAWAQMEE

[9] = target: T2, Eukaryotic elongation factor 2 kinase (Homo sapiens); assay: Inhibition of human EEF2K assessed as residual activity at 1 uM relative to control
[10] = target: Ephrin type-A receptor 2 (Homo sapiens) (UniProt P29317); assay: Inhibition of human EPHA2 assessed as residual activity at 0.1 uM relative to control
[11] = target: Tyrosine-protein kinase JAK2 (Homo sapiens) (UniProt O60674); assay: Inhibition of human JAK2 assessed as residual activity at 0.1 uM relative to control
[12] = target: Mitogen-activated protein kinase 8 (Homo sapiens) (UniProt P45983); assay: Inhibition of human JNK1 assessed as residual activity at 0.1 uM relative to control
[13] = target: Dual specificity mitogen-activated protein kinase kinase 1 (Homo sapiens) (UniProt Q02750); assay: Inhibition of human wild type MEK1 assessed as residual activity at 0.1 uM relative to control
[14] = target: T1, Serine/threonine-protein kinase 3 (Homo sapiens); assay: Inhibition of human MST2 assessed as residual activity at 0.1 uM relative to control
[15] = target: Protein kinase C alpha type (Homo sapiens) (UniProt P17252); assay: Inhibition of human PKCalpha assessed as residual activity at 0.1 uM relative to control
[16] = target: T3, Serine/threonine-protein kinase Sgk1 (Homo sapiens) (UniProt O00141); assay: Inhibition of human SGK1 assessed as residual activity at 1 uM relative to control
T3 sequence (whole entry): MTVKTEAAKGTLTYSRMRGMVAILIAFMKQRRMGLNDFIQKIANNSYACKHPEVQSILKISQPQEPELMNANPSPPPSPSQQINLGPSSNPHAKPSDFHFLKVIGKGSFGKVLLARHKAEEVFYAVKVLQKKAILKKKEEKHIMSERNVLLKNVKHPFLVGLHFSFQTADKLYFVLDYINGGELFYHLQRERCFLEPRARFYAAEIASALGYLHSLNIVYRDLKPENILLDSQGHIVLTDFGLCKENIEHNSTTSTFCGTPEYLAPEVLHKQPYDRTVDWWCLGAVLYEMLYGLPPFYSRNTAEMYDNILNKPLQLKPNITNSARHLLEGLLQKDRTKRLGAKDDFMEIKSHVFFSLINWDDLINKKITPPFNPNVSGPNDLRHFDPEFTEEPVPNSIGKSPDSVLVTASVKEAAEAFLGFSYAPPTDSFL

[17] = target: Proto-oncogene tyrosine-protein kinase Src (Homo sapiens) (UniProt P12931); assay: Inhibition of human GST-HIS-tagged SRC assessed as residual activity at 1 uM relative to control
[18] = target: SRSF protein kinase 1 (Homo sapiens) (UniProt Q96SB4); assay: Inhibition of human SRPK1 assessed as residual activity at 0.1 uM relative to control
[19] = target: SRSF protein kinase 1 (Homo sapiens) (UniProt Q96SB4); assay: Inhibition of human SRPK1 assessed as residual activity at 1 uM relative to control
[20] = target: Vascular endothelial growth factor receptor 1 (Homo sapiens) (UniProt P17948); assay: Inhibition of human VEGFR1 assessed as residual activity at 0.1 uM relative to control

Chain of SRSF protein kinase 1 (Homo sapiens) (Q96SB4 whole entry): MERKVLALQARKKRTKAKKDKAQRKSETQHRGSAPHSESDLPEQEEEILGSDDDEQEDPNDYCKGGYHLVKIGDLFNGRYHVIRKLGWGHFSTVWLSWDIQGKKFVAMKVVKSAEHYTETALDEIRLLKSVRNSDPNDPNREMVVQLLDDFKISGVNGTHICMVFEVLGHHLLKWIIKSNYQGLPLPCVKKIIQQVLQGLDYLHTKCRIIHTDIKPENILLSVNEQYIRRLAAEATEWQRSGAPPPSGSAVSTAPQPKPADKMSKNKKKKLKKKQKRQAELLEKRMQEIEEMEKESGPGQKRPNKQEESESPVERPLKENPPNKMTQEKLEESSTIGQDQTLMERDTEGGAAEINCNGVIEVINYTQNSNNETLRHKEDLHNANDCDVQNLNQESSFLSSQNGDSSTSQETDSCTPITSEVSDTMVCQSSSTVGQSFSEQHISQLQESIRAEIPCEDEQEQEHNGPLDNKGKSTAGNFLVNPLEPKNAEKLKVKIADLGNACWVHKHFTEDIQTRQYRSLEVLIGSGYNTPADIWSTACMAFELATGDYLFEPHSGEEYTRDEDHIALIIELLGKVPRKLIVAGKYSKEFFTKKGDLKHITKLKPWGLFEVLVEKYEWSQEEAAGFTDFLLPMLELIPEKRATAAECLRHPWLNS
Chain of Tyrosine-protein kinase BTK (Homo sapiens) (Q06187 whole entry): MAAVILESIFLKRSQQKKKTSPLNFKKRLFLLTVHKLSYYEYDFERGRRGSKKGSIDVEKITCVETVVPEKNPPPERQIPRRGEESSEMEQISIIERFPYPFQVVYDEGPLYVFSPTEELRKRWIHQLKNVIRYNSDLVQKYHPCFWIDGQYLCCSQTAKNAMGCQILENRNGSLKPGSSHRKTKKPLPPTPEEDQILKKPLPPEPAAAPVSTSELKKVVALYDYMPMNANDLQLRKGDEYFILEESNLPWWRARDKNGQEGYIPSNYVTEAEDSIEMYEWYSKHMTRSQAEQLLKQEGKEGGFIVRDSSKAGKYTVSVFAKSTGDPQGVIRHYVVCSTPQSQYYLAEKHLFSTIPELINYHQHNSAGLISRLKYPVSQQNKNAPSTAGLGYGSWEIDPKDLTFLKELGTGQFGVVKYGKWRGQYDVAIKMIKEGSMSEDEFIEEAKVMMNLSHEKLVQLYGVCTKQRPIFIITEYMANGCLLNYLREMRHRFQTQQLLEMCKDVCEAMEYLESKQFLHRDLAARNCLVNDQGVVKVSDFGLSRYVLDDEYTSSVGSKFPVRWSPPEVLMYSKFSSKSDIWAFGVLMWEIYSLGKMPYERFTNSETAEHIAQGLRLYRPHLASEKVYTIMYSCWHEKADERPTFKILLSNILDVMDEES
Chain of Serine/threonine-protein kinase Chk2 (Homo sapiens) (O96017 whole entry): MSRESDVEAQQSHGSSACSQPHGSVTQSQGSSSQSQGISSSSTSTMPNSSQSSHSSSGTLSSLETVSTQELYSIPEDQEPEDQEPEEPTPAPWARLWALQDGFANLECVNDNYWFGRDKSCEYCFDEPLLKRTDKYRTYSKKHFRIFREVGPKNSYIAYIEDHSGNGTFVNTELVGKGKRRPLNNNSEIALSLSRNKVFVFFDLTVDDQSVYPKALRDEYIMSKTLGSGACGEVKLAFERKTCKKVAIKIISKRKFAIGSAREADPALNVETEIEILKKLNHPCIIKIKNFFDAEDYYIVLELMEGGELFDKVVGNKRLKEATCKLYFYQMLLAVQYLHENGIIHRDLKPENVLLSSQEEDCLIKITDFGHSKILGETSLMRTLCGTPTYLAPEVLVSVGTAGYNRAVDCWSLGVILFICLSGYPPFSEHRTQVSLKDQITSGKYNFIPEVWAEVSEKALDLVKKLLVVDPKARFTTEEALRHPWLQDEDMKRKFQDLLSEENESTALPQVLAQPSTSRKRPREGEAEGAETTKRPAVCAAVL
Chain of Calcium/calmodulin-dependent protein kinase kinase 2 (Homo sapiens) (Q96RR4 2-588 limits assumed): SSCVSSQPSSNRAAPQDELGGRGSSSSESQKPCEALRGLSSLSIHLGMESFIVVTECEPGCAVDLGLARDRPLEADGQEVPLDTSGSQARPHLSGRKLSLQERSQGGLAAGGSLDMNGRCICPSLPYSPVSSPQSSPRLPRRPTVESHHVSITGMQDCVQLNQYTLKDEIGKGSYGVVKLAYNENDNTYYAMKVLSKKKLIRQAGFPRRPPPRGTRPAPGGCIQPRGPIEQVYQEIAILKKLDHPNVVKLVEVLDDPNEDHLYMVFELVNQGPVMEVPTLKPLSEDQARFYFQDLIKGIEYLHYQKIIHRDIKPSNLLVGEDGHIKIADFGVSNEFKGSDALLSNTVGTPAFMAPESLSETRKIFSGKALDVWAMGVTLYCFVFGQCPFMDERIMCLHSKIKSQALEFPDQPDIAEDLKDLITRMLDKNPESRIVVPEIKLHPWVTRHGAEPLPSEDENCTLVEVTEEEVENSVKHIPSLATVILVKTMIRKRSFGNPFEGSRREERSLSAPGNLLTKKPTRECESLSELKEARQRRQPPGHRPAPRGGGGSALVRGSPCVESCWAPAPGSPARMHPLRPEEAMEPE
Chain of Aurora kinase B (Homo sapiens) (Q96GD4 whole entry): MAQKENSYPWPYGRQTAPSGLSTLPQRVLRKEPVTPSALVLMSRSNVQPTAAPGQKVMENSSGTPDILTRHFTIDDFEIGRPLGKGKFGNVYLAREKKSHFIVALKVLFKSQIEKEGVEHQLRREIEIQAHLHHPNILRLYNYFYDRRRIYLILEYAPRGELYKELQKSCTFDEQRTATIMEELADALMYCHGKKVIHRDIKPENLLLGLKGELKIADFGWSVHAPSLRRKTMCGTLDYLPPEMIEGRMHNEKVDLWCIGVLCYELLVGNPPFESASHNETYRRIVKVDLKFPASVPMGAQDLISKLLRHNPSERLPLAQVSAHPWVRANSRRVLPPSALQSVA
Chain of Dual specificity mitogen-activated protein kinase kinase 1 (Homo sapiens) (Q02750 whole entry): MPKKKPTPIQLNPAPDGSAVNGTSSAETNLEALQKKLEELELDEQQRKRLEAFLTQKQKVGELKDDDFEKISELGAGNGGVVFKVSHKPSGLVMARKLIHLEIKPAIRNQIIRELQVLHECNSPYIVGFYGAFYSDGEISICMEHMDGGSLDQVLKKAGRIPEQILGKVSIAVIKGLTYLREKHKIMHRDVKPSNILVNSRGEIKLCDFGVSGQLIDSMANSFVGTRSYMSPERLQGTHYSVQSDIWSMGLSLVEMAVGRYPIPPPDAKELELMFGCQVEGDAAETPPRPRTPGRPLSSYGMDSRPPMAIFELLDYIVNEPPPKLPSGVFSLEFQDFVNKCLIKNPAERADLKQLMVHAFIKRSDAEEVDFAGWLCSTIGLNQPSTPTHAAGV
Chain of Tyrosine-protein kinase JAK2 (Homo sapiens) (O60674 whole entry): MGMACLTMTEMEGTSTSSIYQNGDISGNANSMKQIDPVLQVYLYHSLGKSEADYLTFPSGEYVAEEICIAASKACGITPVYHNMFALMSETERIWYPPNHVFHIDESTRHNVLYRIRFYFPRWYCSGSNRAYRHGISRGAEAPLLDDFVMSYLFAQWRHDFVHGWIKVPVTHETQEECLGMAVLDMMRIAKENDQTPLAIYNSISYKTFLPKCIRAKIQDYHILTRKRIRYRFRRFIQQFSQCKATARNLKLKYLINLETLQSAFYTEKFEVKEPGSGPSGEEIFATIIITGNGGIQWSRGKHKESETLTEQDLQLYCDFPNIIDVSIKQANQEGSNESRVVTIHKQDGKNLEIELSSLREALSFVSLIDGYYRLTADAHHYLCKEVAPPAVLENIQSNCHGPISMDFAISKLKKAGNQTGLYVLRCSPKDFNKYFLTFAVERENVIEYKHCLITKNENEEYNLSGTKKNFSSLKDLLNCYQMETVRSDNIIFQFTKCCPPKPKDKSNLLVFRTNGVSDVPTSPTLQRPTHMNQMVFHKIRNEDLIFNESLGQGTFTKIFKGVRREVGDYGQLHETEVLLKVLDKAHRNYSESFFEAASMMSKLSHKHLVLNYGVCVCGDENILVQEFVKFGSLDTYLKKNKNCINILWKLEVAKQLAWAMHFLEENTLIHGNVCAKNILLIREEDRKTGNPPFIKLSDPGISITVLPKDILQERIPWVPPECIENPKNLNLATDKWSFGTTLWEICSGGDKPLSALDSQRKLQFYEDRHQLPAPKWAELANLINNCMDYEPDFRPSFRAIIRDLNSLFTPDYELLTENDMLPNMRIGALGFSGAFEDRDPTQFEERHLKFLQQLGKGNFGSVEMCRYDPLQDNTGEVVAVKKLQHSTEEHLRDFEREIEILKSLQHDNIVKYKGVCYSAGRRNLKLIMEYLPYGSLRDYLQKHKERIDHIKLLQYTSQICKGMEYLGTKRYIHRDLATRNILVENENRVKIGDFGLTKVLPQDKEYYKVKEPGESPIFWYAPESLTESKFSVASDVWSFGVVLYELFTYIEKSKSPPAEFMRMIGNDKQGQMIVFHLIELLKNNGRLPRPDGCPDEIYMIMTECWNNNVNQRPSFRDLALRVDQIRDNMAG

Row | SMILES | Activity [1] [%] | Activity [2] [%] | Activity [3] [%] | Activity [4] [%] | Activity [5] [%] | Activity [6] [%] | Activity [7] [%] | Activity [8] [%] | Activity [9] [%] | Activity [10] [%] | Activity [11] [%] | Activity [12] [%] | Activity [13] [%] | Activity [14] [%] | Activity [15] [%] | Activity [16] [%] | Activity [17] [%] | Activity [18] [%] | Activity [19] [%] | Activity [20] [%]
1 | COc1ccc2c(c1)c(/C=C1\C(=O)Nc3ccc(S(N)(=O)=O)cc31)cn2C | 84 | 79 | 117 | 53 | 35 | 39 | 101 | 101 | 102 | 98 | 90 | 110 | 82 | 86 | 91 | 75 | 91 | 106 | 99 | 94
2 | COc1ccc2c(c1)c(/C=C1\C(=O)Nc3ccc(S(=O)(=O)N(C)C)cc31)cn2C | 104 | 85 | 89 | 76 | 100 | 99 | 98 | 99 | 86 | 106 | 88 | 103 | 104 | 101 | 93 | 80 | 70 | 111 | 95 | 96
3 | CN(C)S(=O)(=O)c1ccc2c(c1)/C(=C/c1cn(C)c3ccc(O)cc13)C(=O)N2 | 83 | 43 | 95 | 73 | 94 | 92 | 101 | 97 | 106 | 111 | 78 | 105 | 107 | 98 | 96 | 81 | 68 | 109 | 94 | 100
4 | CNS(=O)(=O)c1ccc2c(c1)/C(=C/c1cn(C)c3ccc(OC)cc13)C(=O)N2 | 77 | 74 | 97 | 56 | 93 | 75 | 89 | 103 | 92 | 100 | 89 | 103 | 104 | 95 | 101 | 81 | 73 | 105 | 101 | 91
5 | Cn1cc(/C=C2\C(=O)Nc3ccc(S(N)(=O)=O)cc32)c2ccccc21 | 62 | 59 | 111 | 62 | 9 | 5 | 122 | 99 | 103 | 99 | 85 | 121 | 67 | 91 | 106 | 55 | 108 | 116 | 101 | 82
6 | COc1ccc2[nH]cc(/C=C3\C(=O)Nc4ccc(S(N)(=O)=O)cc43)c2c1 | 64 | 95 | 100 | 83 | 59 | 12 | 105 | 107 | 112 | 110 | 91 | 103 | 87 | 101 | 104 | 49 | 74 | 114 | 93 | 96
